In article PMC12605013, “SAG1.3-derived Frizzled-targeting small-molecule compounds” (The Journal of Biological Chemistry, 2025):

Assays:
[1] = biological target: T1, HiBiT-FZD5 (Homo sapiens, UniProt Q13467); assay: NanoBiT cell surface expression assay, HiBiT-FZD5; type: cell-based; details: 10 μM, overnight exposure
T1 construct: expressed in transfected cells; host or cells: HEK293A cells
Experimental: Subsequently, 10 μl of either compound 11 or 26 (DD436001) was added at a final concentration of 10 μM. DMSO was added separately as a control. One day after compound or DMSO addition, cells were washed once with HBSS, and 90 μl of HBSS was added to the wells. To measure cell surface expression, a 1:20 dilution of furimazine live cell substrate and 1:20 LgBiT mix (final dilution = 1:200) were prepared in HBSS and 10 μl was added. The plate was incubated for 30 min to allow for HiBiT–LgBiT complementation, and then luminescence was measured on a TECAN Spark multimode microplate reader between 460 and 500 nm (integration time: 200 ms).
Figure S4. BRET time-course of compound 11 at the FZD5-DEP-Clamp in agonist mode and HiBiT-FZD5/6 surface expression upon compound exposure. (A) Shown is the BRET time-course recorded upon addition of 30 µM compound 11 or vehicle (DMSO). Experiments were performed in HEK293A cells stably expressing the FZD5-DEP-Clamp sensor. […] The timepoint of ligand addition is indicated by a black arrow. (B, C) Impact of compound 11 on FZD cell surface expression. The cell surface pool of transiently-transfected HiBiT-FZD5 (B) and HiBiT-FZD6 (C) was assessed by addition of recombinant LgBiT in combination with detection of NanoBiT luminescence. […]

[2] = system: HPAF-II cells; assay: Cell viability (AlamarBlue) of HPAF-II cells; type: cell-based, human; details: one-week treatment; 10 µM
Experimental: (§1) HPAF-II cells and PANC-1 cells were seeded in DMEM at a density of 1000 cells per well into a black opaque 96-well plate (Greiner BioOne). After 1 day, the medium was exchanged with complete DMEM containing either compound 11, the porcupine inhibitor C59, or DMSO (vehicle control). After 3 days of incubation (37 °C, 5% CO2), the medium was exchanged once again with DMEM containing the same concentration of ligands or DMSO (vehicle control). Three days after (equal to 7 days after seeding), the medium was removed and 90 μl of fresh DMEM (without any ligands) were added. Last, 10 μl of AlamarBlue HS reagent (Thermo Fisher Scientific; catalog no.: A50100) were added to each well, and the cells were incubated for 4 h at 37 °C inside the incubator (5% CO2). After the incubation step, fluorescence was read using a TECAN Spark multimode microplate reader (excitation: 535 ± 25 nm, emission: 595 ± 35 nm).
(§2) For each cell viability experiment, the fluorescence measured in ligand-treated wells was normalized to the average fluorescence from wells treated with vehicle control (DMSO).

[3] = system: PANC-1 cells; assay: Cell viability (AlamarBlue) of PANC-1 cells; type: cell-based, human; details: one-week treatment; 10 µM
Experimental: as §1, §2

[4] = biological target: T2, Nluc-FZD4 (Homo sapiens, UniProt Q9ULV1); assay: BRET-based BODIPY-cyclopamine competition binding at Nluc-FZD4; details: BODIPY-cyclopamine 200 nM; ΔFZD1-10 HEK293T cells; read-out: pIC50 (11) mean ± SEM, Nluc-FZD4 (converted)
T2 construct: expressed in transfected cells; host or cells: ΔFZD1–10 HEK293T cells
T2 sequence (Q9ULV1 37-537): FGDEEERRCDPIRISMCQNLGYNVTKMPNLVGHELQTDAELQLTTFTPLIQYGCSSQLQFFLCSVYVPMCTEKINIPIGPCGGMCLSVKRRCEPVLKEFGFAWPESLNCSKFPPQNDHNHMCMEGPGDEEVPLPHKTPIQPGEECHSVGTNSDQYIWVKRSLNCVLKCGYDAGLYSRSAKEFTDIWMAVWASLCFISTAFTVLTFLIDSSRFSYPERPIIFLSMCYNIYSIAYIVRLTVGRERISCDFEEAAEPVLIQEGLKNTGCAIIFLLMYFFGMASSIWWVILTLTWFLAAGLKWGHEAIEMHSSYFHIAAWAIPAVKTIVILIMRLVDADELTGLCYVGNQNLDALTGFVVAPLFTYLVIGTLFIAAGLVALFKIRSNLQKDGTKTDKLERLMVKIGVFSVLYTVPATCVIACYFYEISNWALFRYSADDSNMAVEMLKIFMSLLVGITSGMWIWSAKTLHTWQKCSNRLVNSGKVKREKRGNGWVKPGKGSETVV
Experimental: (§3) After 24 h, cells were washed once with Hanks' balanced salt solution (HBSS), followed by the addition of 80 μl of HBSS. Next, 10 μl of the competitive ligand, that is, the tested SAG1.3 derivative (either in different concentrations for the concentration–response curves or at a final concentration of 10 μM for the first screens) and 10 μl of the fluorescent tracer BODIPY–cyclopamine (final concentration: 300 nM for the first screens, 200 nM for the concentration–response experiments) were added. All serial dilutions were prepared in HBSS. The cells were incubated for 90 min at 37 °C without additional CO2, after which 10 μl of luciferase substrate diluted in HBSS (furimazine; Promega, N1572, final dilution: 1:1000 for first screening) and coelenterazine h (Biosynth; final concentration: 5 μM for concentration–response experiments) were added to the cells. Following a 10 min incubation period in the dark, the measurement was started on a BMG Labtech ClarioStar or TECAN Spark multimode microplate reader, prewarmed to 37 °C. Nluc bioluminescence was detected between 460 and 490 nm (ClarioStar) or 460 and 500 nm (TECAN Spark). The emission of the fluorescent tracer was detected between 520 and 550 nm (ClarioStar) or between 520 and 560 nm (TECAN Spark). […]

[5] = biological target: T3, Nluc-FZD7 (Homo sapiens, UniProt O75084); assay: BRET-based BODIPY-cyclopamine competition binding at Nluc-FZD7; details: BODIPY-cyclopamine 200 nM; ΔFZD1-10 HEK293T cells; read-out: pIC50 (11) mean ± SEM, Nluc-FZD7 (converted)
T3 construct: expressed in transfected cells; host or cells: ΔFZD1–10 HEK293T cells
Experimental: as §3

T1 sequence (Q13467 27-585): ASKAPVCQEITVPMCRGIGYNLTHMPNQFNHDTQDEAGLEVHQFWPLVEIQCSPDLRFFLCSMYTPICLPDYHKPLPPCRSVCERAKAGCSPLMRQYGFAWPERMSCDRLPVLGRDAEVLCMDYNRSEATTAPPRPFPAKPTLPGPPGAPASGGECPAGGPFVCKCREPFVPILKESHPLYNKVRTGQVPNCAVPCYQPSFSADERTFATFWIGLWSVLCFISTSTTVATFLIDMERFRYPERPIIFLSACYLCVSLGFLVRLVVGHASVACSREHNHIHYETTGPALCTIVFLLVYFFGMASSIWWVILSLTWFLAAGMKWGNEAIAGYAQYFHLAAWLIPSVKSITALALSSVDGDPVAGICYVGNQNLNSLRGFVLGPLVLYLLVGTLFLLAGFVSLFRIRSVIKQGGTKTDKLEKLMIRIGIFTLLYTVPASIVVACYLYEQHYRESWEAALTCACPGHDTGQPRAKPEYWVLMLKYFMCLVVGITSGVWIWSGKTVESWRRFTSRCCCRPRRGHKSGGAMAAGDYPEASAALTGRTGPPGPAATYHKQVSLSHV

For `CC(=O)Nc1cccc(C(=O)NC2CCC(N(Cc3cccc(-c4ccncc4)c3)C(=O)c3sc4ccccc4c3Cl)CC2)c1` (centres unmarked) [compound 11, N-((1r,4r)-4-(3-Acetamidobenzamido)cyclohexyl)-3-chloro-N-(3-(pyridin-4-yl)benzyl)benzo[b]thiophene-2-carboxamide], the “Effect on surface levels of HiBiT-FZD5” value [1] was “had no effect”, the “Cell viability of RNF43-negative HPAF-II cells” value [2] was “strongly reduced” and the “Cell viability of RNF43-wildtype PANC-1 cells” value [3] was “not significantly affected”. For the same compound, the IC50 [4] was 955 nM and the IC50 [5] was 891 nM.
